# Experimental data reported in PMC8698070, “The Zoonotic Helminth Parasite Fasciola hepatica: Virulence-Associated Cathepsin B and Cathepsin L Cysteine Peptidases Secreted by Infective Newly Excysted Juveniles (NEJ)” (Animals : an Open Access Journal from MDPI, 2021).
# “Also recorded” adds a separate entry of the source. Where a SMILES comes first, the peptide text is derived from it. The star is where a group is joined. Cbz = O=C(OCc1ccccc1)*; CH2F = FC*
# Columns and labels:
# [1] = molecular target: T1, human cathepsin B (HsCB) (Homo sapiens, UniProt P07858); experiment: Inhibitor screen against human cathepsin B control; format: biochemical
# T1 construct: purchased Sigma-Aldrich; host or cells: human embryonic kidney cells
# Text: (§1) The Schistosoma mansoni cathepsin B1 (SmCB1) was also produced in our laboratory using P. pastoris as described above. The human cathepsin B (HsCB) and cathepsin L1 (HsCL1) were produced in human embryonic kidney cells (Sigma-Aldrich).
# Commercially available inhibitors of cathepsin B (Ca074 and Ca074-OMe), cathepsin L (L, L1, LII, LIII and LIV), cathepsin K (KI, KII and KIII) and cathepsin S were purchased from Merck Millipore (Cork, Ireland; Supplementary Figure S2). The broad-spectrum papain peptidase inhibitor Z-Phe-Ala-FMK was purchased from Enzo Life Sciences (Exeter, UK). These were used to determine and compare the inhibition constant (Ki) against the recombinant FhCBs and FhCL3. […] Substrate concentrations were equal to KM (shown in Table 1) and the apparent inhibition constant (Ki^app) values were calculated with GraphPad Prism 5, using the Morrison equation for tight binding inhibition (Equation (3)). For competitive inhibitors, such as those used in this study, Ki^app was fitted to a second equation (Equation (4)) from which Ki can be determined. (3) vi/vo=1−([E])+[I]+Kiapp)−([E]+[I]+Kiapp)^2−4[E][I] /2[E] (4) Kiapp=Ki(1+[S]/KM)
# The broad-range cysteine peptidase inhibitor Z-Phe-Ala-FMK was also included (Figure 5).
# Figure 5 Profile of inhibition of FhCB1, FhCB2, FhCB3 and FhCL3. Commercially available inhibitors of cathepsin B (Ca074 and Ca07a-OMe), cathepsin L (L, L1, LII, LIII and LIV), cathepsin K (KI, KII and KIII), cathepsin S and the broad-spectrum papain peptidase inhibitor Z-Phe-Ala-FMK (A–L) were used to determine and compare the inhibition constant against recombinants FhCB1, FhCB2, FhCB3, FhCL3, HsCB and HsCL1. […] Error bars indicate standard deviation of three replicates.
# [2] = molecular target: FhCB3 (Fasciola hepatica, UniProt A7UNB2); experiment: Inhibition of recombinant FhCB3, fluorogenic substrate assay (Z-Val-Ile-Arg-AMC); format: biochemical; conditions: for inhibition of enzymatic activity (inhibitor screen, Figure 5), in words: FhCB3, inhibitor 1000-15 nM; for Ki: read-out: inhibition constant Ki
# Protocol: (§2) Recombinant peptidases were assayed for enzymatic activity using a fluorogenic substrate assay. The reactions were carried out in 0.1 M C-P buffer (pH 7.0) with 1 mM DTT in a final volume of 200 μL, in a black 96-well plate. Each well contained activated enzyme (140 nM) and 20 μM fluorogenic substrate, which was added to start the reaction. All assays were run in triplicate at 37 °C for 1 h. Enzyme activity was monitored by rate of hydrolysis and subsequent release of the AMC group on the synthetic peptide substrates at an excitation wavelength of 370 nm and an emission wavelength of 460 nm, as relative fluorescence units (RFU), in a PolarStar Omega Spectrophotometer (BMG Labtech, Aylesbury, UK). All data were plotted and analysed using MARS Data Analysis Software (BMG Labtech, UK) and GraphPad Prism version 5.
# (§3) Commercially available inhibitors of cathepsin B (Ca074 and Ca074-OMe), cathepsin L (L, L1, LII, LIII and LIV), cathepsin K (KI, KII and KIII) and cathepsin S were purchased from Merck Millipore (Cork, Ireland; Supplementary Figure S2). The broad-spectrum papain peptidase inhibitor Z-Phe-Ala-FMK was purchased from Enzo Life Sciences (Exeter, UK). These were used to determine and compare the inhibition constant (Ki) against the recombinant FhCBs and FhCL3. All the assays were carried out in 0.1 M C-P buffer with 1 mM DTT and 0.01% Brij® L23, at the pH corresponding to the optimum for each enzyme in a total 200 µL reaction volume. The peptidases (140 nM) were pre-incubated with the inhibitor (1000-15 nM) at room temperature, for 30 min, before starting the reaction by the addition of the substrate that was optimal for each enzyme (FhCB1, Z-Phe-Arg-AMC; FhCB2 and FhCB3, Z-Val-Ile-Arg-AMC; FhCL3, Z-Gly-Pro-Arg-AMC). Substrate concentrations were equal to KM (shown in Table 1) and the apparent inhibition constant (Ki^app) values were calculated with GraphPad Prism 5, using the Morrison equation for tight binding inhibition (Equation (3)). For competitive inhibitors, such as those used in this study, Ki^app was fitted to a second equation (Equation (4)) from which Ki can be determined. (3) vi/vo=1−([E])+[I]+Kiapp)−([E]+[I]+Kiapp)^2−4[E][I] /2[E] (4) Kiapp=Ki(1+[S]/KM)
# [3] = molecular target: FhCL3 (Fasciola hepatica, UniProt A0A879R2T5); experiment: Inhibition of recombinant FhCL3, fluorogenic substrate assay (Z-Gly-Pro-Arg-AMC); format: biochemical; conditions: for inhibition of enzymatic activity (inhibitor screen, Figure 5), in words: FhCL3, inhibitor 1000-15 nM; for Ki: read-out: inhibition constant Ki
# Protocol: as §2, §3
# [4] = molecular target: FhCB1 (Fasciola hepatica, UniProt Q8I7B2); experiment: Inhibition of recombinant FhCB1, fluorogenic substrate assay (Z-Phe-Arg-AMC); format: biochemical; conditions: for inhibition of enzymatic activity (inhibitor screen, Figure 5), in words: FhCB1, inhibitor 1000-15 nM; for Ki: read-out: inhibition constant Ki
# Protocol: as §2, §3
# [5] = molecular target: FhCB2 (Fasciola hepatica, UniProt A5X493); experiment: Inhibition of recombinant FhCB2, fluorogenic substrate assay (Z-Val-Ile-Arg-AMC); format: biochemical; conditions: for inhibition of enzymatic activity (inhibitor screen, Figure 5), in words: FhCB2, inhibitor 1000-15 nM; for Ki: read-out: inhibition constant Ki
# Protocol: as §2, §3
# [6] = molecular target: T2, cathepsin L1 (HsCL1) (Homo sapiens, UniProt P07711); experiment: Inhibitor screen against human cathepsin L1 control; format: biochemical
# T2 construct: purchased Sigma-Aldrich; host or cells: human embryonic kidney cells
# Text: as §1, §3
# A panel of 12 commercially available cysteine peptidase inhibitors that preferentially target mammalian cathepsin B (Ca074 and Ca074-OMe), cathepsin L (L, L1, LII, LIII and LIV) cathepsin S (S) and cathepsin K (KI, KII and KIII) were screened against the FhCBs, FhCL3 and, as controls, HsCB and HsCL1. The broad-range cysteine peptidase inhibitor Z-Phe-Ala-FMK was also included (Figure 5).
# Figure 5 Profile of inhibition of FhCB1, FhCB2, FhCB3 and FhCL3. Commercially available inhibitors of cathepsin B (Ca074 and Ca07a-OMe), cathepsin L (L, L1, LII, LIII and LIV), cathepsin K (KI, KII and KIII), cathepsin S and the broad-spectrum papain peptidase inhibitor Z-Phe-Ala-FMK (A–L) were used to determine and compare the inhibition constant against recombinants FhCB1, FhCB2, FhCB3, FhCL3, HsCB and HsCL1. Activity is represented as the percentage of enzymatic activity observed by hydrolysis of a fluorogenic quenched peptide substrate following a pre-incubation with inhibitor in relation to the activity of the enzyme alone. Error bars indicate standard deviation of three replicates.
# [7] = system: Cc1cc(=O)oc2cc(NC(=O)[C@H](CCCNC(=N)N)NC(=O)[C@H](Cc3ccccc3)NC(=O)OCc3ccccc3)ccc12; experiment: purified protein, by the assay type; conditions: substrate 2000–4 μM, optimum pH, ± standard deviation, pH 7.0, 37.0 °C
# Protocol: (§4) To determine the kinetic constants, Kcat, KM and Kcat/KM of the activated peptidases against the Z-Phe-Arg-AMC, Z-Gly-Pro-Arg-AMC and Z-Val-Ile-Arg-AMC substrates were used at concentrations of 2000–4 μM over a series of 10 dilutions using enzymes, buffer and assay conditions as described above. The kinetic constants, KM and Vmax, were calculated using the Michaelis–Menten equation (Equation (1)) in a non-linear regression analysis of initial reaction velocity against substrate concentration (built into GraphPad Prism 5). The value of KM can then be fitted to Equation (2) to determine the catalytic constant Kcat. (1) ν=d[P]/dt=Vmax[S]/KM+[S] where ν is the initial reaction velocity, [P] is the concentration of the formed product, [S] is the substrate concentration, Vmax is the maximum rate achieved by the system and KM is the Michaelis–Menten constant, which represents the concentration of substrate at which the reaction has a rate equal to half of Vmax. (2) ν=Kcat[Et]{}[S]/KM+[S] where [Et] is the enzyme concentration and Kcat is the catalytic constant, representing the measure of substrate molecules converted to product by enzyme per second.
# [8] = system: Cc1cc(=O)oc2cc(NC(=O)[C@H](CCCNC(=N)N)NC(=O)[C@@H]3CCCN3C(=O)CNC(=O)OCc3ccccc3)ccc12; experiment: purified protein, by the assay type; conditions: substrate 2000–4 μM, optimum pH, ± standard deviation, pH 7.0, 37.0 °C
# Protocol: as §4
# [9] = system: CC[C@H](C)[C@H](NC(=O)[C@@H](NC(=O)OCc1ccccc1)C(C)C)C(=O)N[C@@H](CCCNC(=N)N)C(=O)Nc1ccc2c(C)cc(=O)oc2c1; experiment: purified protein, by the assay type; conditions: other: FhCB3; substrate 2000–4 μM, optimum pH; ± standard deviation; pH 7.0; 37.0 °C
# Protocol: as §4
# [10] = recombinant FhCB3 140 nM, 30 min pre-incubation, substrate Z-Val-Ile-Arg-AMC at KM, optimum pH, ± SEM
# [11] = recombinant FhCL3 140 nM, 30 min pre-incubation, substrate Z-Gly-Pro-Arg-AMC at KM, optimum pH, ± SEM
# [12] = recombinant FhCB1 140 nM, 30 min pre-incubation, substrate Z-Phe-Arg-AMC at KM, optimum pH, ± SEM
# [13] = recombinant FhCB2 140 nM, 30 min pre-incubation, substrate Z-Val-Ile-Arg-AMC at KM, optimum pH, ± SEM
# Sequence of FhCB2 (A5X493 entry or part of it): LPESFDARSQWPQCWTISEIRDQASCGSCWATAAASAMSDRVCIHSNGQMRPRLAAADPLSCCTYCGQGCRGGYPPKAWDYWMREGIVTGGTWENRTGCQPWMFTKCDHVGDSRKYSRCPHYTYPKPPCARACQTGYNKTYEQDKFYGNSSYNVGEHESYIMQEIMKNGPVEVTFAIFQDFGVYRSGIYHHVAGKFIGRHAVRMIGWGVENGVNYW
# Sequence of FhCB3 (A7UNB2 entry or part of it): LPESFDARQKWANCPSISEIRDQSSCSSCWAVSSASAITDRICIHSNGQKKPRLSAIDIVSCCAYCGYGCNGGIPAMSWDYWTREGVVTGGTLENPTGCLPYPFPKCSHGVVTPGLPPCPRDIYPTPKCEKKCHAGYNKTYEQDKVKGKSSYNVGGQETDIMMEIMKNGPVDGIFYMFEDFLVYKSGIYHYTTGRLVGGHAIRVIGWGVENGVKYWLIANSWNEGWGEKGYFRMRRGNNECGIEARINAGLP
# T2 sequence (P07711 114-333): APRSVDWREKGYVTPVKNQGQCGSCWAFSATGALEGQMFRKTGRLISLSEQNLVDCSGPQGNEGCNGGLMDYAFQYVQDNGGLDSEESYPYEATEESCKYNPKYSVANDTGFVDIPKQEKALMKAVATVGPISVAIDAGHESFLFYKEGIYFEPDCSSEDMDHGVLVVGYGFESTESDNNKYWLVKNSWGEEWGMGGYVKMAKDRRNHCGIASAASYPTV
# Sequence of FhCB1 (Q8I7B2 entry or part of it): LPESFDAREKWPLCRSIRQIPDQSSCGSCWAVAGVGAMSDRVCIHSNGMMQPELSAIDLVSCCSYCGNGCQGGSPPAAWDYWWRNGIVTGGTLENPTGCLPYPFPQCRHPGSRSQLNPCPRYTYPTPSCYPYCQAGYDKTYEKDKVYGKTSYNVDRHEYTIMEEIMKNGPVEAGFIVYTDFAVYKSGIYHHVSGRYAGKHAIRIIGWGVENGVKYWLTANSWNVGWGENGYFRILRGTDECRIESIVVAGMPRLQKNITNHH
# Sequence of FhCL3 (A0A879R2T5 entry or part of it): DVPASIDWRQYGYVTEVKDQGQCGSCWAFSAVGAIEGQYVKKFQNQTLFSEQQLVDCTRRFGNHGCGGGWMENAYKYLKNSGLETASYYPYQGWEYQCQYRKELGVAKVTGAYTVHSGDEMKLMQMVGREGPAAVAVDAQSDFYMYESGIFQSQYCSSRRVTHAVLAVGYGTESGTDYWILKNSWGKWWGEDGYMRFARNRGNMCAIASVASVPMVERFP
molecule,measurement,setting,value
CCCNC(=O)[C@H]1O[C@@H]1C(=O)N[C@H](C(=O)N1CCC[C@H]1C(=O)O)[C@@H](C)CC [Ca074],"inhibition of enzymatic activity (inhibitor screen, Figure 5), in words",[1],selective for HsCB compared to HsCL1
same,"inhibition of enzymatic activity (inhibitor screen, Figure 5), in words",[2],poor inhibitors; also recorded: very poor inhibitors
same,inhibition constant Ki,[2]; [10],poor inhibition
same,Ki,[2]; [10],540 ± 45.2 nM
same,"inhibition of enzymatic activity (inhibitor screen, Figure 5), in words",[3],poor inhibitors
same,inhibition constant Ki,[3]; [11],poor inhibition
same,Ki,[3]; [11],603 ± 133 nM
same,"inhibition of enzymatic activity (inhibitor screen, Figure 5), in words",[4],poor inhibitors; also recorded: very poor inhibitors
same,inhibition constant Ki,[4]; [12],poor inhibition
same,Ki,[4]; [12],7320 ± 934 nM
same,"inhibition of enzymatic activity (inhibitor screen, Figure 5), in words",[5],poor inhibitors; also recorded: very poor inhibitors
same,inhibition constant Ki,[5]; [13],poor inhibition
same,Ki,[5]; [13],5930 ± 567 nM
O=C(NCc1ccccc1)C(Cc1ccccc1)NC(=O)C1OC1C(=O)NCCc1ccc(O)cc1 (stereo not drawn) [L],"inhibition of enzymatic activity (inhibitor screen, Figure 5), in words",[6],specificity for HsCL1 over HsCBs
same,"inhibition of enzymatic activity (inhibitor screen, Figure 5), in words",[2],significantly reduced
same,"inhibition of enzymatic activity (inhibitor screen, Figure 5), in words",[3],significantly reduced
same,"inhibition of enzymatic activity (inhibitor screen, Figure 5), in words",[4],did not inhibit
same,"inhibition of enzymatic activity (inhibitor screen, Figure 5), in words",[5],did not inhibit
O=C(NC(Cc1ccccc1)C(=O)NC(Cc1ccccc1)C(=O)CF)OCc1ccccc1 (stereo not drawn) [Inhibitor L1] (Cbz-Phe-Phe-CH2F; configuration not given here),"inhibition of enzymatic activity (inhibitor screen, Figure 5), in words",[6],specificity for HsCL1 over HsCBs
same,"inhibition of enzymatic activity (inhibitor screen, Figure 5), in words",[2],most effective at blocking
same,"inhibition of enzymatic activity (inhibitor screen, Figure 5), in words",[4],most effective at blocking
CC(C)C[C@H](NC(=O)OCc1ccccc1)C(=O)NNC(=O)NNC(=O)[C@H](CC(C)C)NC(=O)C(N)Cc1ccccc1 (stereo partly drawn) [KIII],"inhibition of enzymatic activity (inhibitor screen, Figure 5), in words",[2],abrogated the activity; also recorded: reduced
same,"inhibition of enzymatic activity (inhibitor screen, Figure 5), in words",[3],reduced
same,"inhibition of enzymatic activity (inhibitor screen, Figure 5), in words",[4],weak inhibitors; also recorded: generally poor inhibitors
same,"inhibition of enzymatic activity (inhibitor screen, Figure 5), in words",[5],no effect; also recorded: generally poor inhibitors; also recorded: not inhibited
CC[C@H](C)[C@H](NS(=O)(=O)c1cccc2ccccc12)C(=O)N[C@H](C=O)Cc1c[nH]c2ccccc12 [LIV],"inhibition of enzymatic activity (inhibitor screen, Figure 5), in words",[6],specificity for HsCL1 over HsCBs
COc1ccc(C(=O)ONC(=O)CNC(=O)C(Cc2ccccc2)NC(=O)OCc2ccccc2)cc1 (stereo not drawn) [LIII],"inhibition of enzymatic activity (inhibitor screen, Figure 5), in words",[6],specificity for HsCL1 over HsCBs
FhCB1 (Fasciola hepatica),Km,[7]; other: FhCB1,69 ± 5 µM
same,kcat,[7]; other: FhCB1,1.0 ± 0.2 s⁻¹
same,kcat/Km,[7]; other: FhCB1,"13,596 M^-1S^-1"
CC(C)C[C@H](NC(=O)OCc1ccccc1)C(=O)NNC(=O)NNC(=O)[C@H](CC(C)C)NC(=O)C(Cc1ccccc1)NC(=O)OC(C)(C)C (stereo partly drawn) [KII],"inhibition of enzymatic activity (inhibitor screen, Figure 5), in words",[2],abrogated the activity; also recorded: reduced
same,Ki,[2]; [10],227 ± 28.3 nM
same,"inhibition of enzymatic activity (inhibitor screen, Figure 5), in words",[3],reduced
same,Ki,[3]; [11],0.7 ± 0.19 nM
same,"inhibition of enzymatic activity (inhibitor screen, Figure 5), in words",[4],weak inhibitors; also recorded: generally poor inhibitors
same,Ki,[4]; [12],466 ± 40.6 nM
same,"inhibition of enzymatic activity (inhibitor screen, Figure 5), in words",[5],no effect; also recorded: generally poor inhibitors; also recorded: not inhibited
same,Ki,[5]; [13],> 1000 nM
FhCL3 (Fasciola hepatica),Km,[8]; other: FhCL3,27 ± 2 µM
same,kcat,[8]; other: FhCL3,0.5 ± 0.07 s⁻¹
same,kcat/Km,[8]; other: FhCL3,"17,960 M^-1S^-1"
CC(C)C[C@H](NC(=O)OCc1ccccc1)C(=O)NCC(=O)CNC(=O)[C@H](CC(C)C)NC(=O)OCc1ccccc1 [KI],"inhibition of enzymatic activity (inhibitor screen, Figure 5), in words",[2],reduced
same,"inhibition of enzymatic activity (inhibitor screen, Figure 5), in words",[3],reduced
same,"inhibition of enzymatic activity (inhibitor screen, Figure 5), in words",[4],generally poor inhibitors
same,"inhibition of enzymatic activity (inhibitor screen, Figure 5), in words",[5],generally poor inhibitors; also recorded: not inhibited
FhCB3 (Fasciola hepatica),Km,[7]; other: FhCB3,27 ± 2 µM
same,kcat,[7]; other: FhCB3,0.05 ± 0.007 s⁻¹
same,kcat/Km,[7]; other: FhCB3,1708 M^-1S^-1
same,Km,[9],42 ± 4 µM
same,kcat,[9],0.1 ± 0.004 s⁻¹
same,kcat/Km,[9],2266 M^-1S^-1
same,Km,[8]; other: FhCB3,40 ± 4 µM
same,kcat,[8]; other: FhCB3,0.02 ± 0.002 s⁻¹
same,kcat/Km,[8]; other: FhCB3,579 M^-1S^-1
